The record followed here is paper PMC8043168, “Tribolium castaneum defensin 1 kills Moraxella catarrhalisin an in vitro infection model but does not harm commensal bacteria” (Virulence, 2021).

Assay [1] has as its system E. coli. The experiment in a line: Growth kinetics of commensal E. coli. The class given is cell-based, Escherichia coli. The note with it: liquid LB medium, 37°C, OD600 every 30 min; defensin 1 12.5 µM, sarcotoxin 1 C 0.39 µM. The procedure:
For the analysis of commensal bacteria, E. faecalis was grown on Columbia agar plates or in liquid BHI medium, and E. coli was grown on McConkey agar or in liquid LB medium. After overnight culture on agar plates at 37°C and 5% CO2, both species were transferred to liquid medium at an initial OD600 of 0.005. The cultures were maintained in a shaking incubator at 37°C, and the OD600 was measured automatically at 30-min intervals as above.

In assay [2] the test system is M. catarrhalis in human blood-derived macrophages (BDMs). The experiment in a line: Colony forming unit assay in blood-derived macrophages infected with M. catarrhalis. The class given is cell-based, Moraxella catarrhalis. To be noted: MOI 0.5 or 1; defensin 1 12.5 µM or sarcotoxin 1 C 0.39 µM added 1 or 5 h post-infection; further 16 h; lysis with 1% saponin, plating; vs assays without peptide. As for the experimental part: The absolute number of bacterial cells after treatment with defensin 1 or sarcotoxin 1 C was determined by counting the colony forming units (CFUs). M. catarrhalis overnight cultures prepared as described above were grown to the mid-exponential phase (~5 x 10^8 cells/ml) in BHI medium before dilution to 2 × 10^7 cells/ml in PBS containing 0.15% gelatin, and blood-derived macrophages (BDMs) were infected with a multiplicity of infection (MOI) of 0.5 or 1. […] Cells were then incubated for an additional 16 h at 37°C and 5% CO2 and then lysed with 1% saponin. Lysates were plated on sheep blood agar and cultivated for a further 15 h at 37°C and 5% CO2 before manual counting of the colonies on each plate.
All donors gave informed written consent (Ethics approval number: 161/17). Human BDMs were cultured as previously described. Briefly, primary human monocytes were isolated from donor buffy coats by selection for CD14^+ cells using CD14 Microbeads (Miltenyi Biotec, Bergisch Gladbach, Germany). Monocytes were grown in RPMI1640 medium with 1% human AB serum at 37°C and 5% CO2 on ultra-low attachment plates (Sigma-Aldrich, Munich, Germany). After 6 days, differentiated macrophages were detached, seeded at the desired density and incubated for 24 h before further analysis.

In assay [3] the test system is M. catarrhalis. The assay is classed as cell-based, Moraxella catarrhalis. The procedure:
Colonies of M. catarrhalis were grown on sheep blood agar plates for 12 h at 37°C and 5% CO2 before transfer to brain heart infusion (BHI) medium (Carl Roth, Karlsruhe, Germany) at an initial concentration of 1.6 × 10^7 cells/ml (OD600 = 0.08) as determined using an Ultraspec 10 cell densitometer (Amersham BioSciences, Little Chalfont, UK). Bacteria were cultivated in a shaking incubator at 37°C until the concentration reached 1.2 × 10^8 cells/ml (OD600 = 0.6) and then diluted to 2 × 10^6 cells/ml (OD600 = 0.011). To establish the optimal concentration ranges for AMP activity, defensin 1 was prepared as a two-fold dilution series from 12.5 µM to 1.56 µM and was added to the bacterial cultures, which were incubated as above for a further 16 h. Untreated cultures were used as controls. The OD600 was measured automatically at 30-min intervals using an Infinite M200 Pro plate reader (Tecan Life Sciences, Männedorf, Switzerland). […] They were cultivated for a further 15 h at 37°C and 5% CO2 in serial dilution before manual counting of the colonies on each plate.
Table S1. Detailed characterization of tested AMPs. M.c. were grown to an Optical Density (OD) 600nm of 0.6 in Brain Heart Infusion (BHI) Medium.
Upon dilution to OD600nm= 0.01, M.c. were incubated with declining amounts of indicated AMPs (25 μM to 0.048 μM at halving intervals) at 37°C with 5% CO2.
OD600nm was measured at 30 min intervals to establish the minimal inhibitory concentration (MIC). pI = isoelectric point, MW = molecular weight in kiloDalton.
MIC AMP name AMP class Organism Amino Acid Sequence pIMWPurity Retention time [min] modification
0.195 µM Cecropin A α-helical Hyalophora cecropia […] 10.75 4.00 91.06 7.30 n-term. amidation
0.39 µM Sarcotoxin IA α-helical Sarcophaga peregrina […] 11.07 4.16 91.37 9.37 n-term. amidation
~ 25µM Stomoxyn α-helical Stomoxys calcitrans […] 11.26 4.40 95.34 10.08 n-term. amidation
~ 25µM Spinigerin linear Pseudacanthotermes spiniger […] 11.07 3.00 96.23 12.45 none
>25µM Apidaecin Ia proline-rich Apis mellifera GNNRPVYIPQPRPPHPRI 11.71 2.11 92.98 16.91 none
>25µM Drosocin proline-rich Drosophila melanogaster GKPRPYSPRPTSHPRPIRV 12.01 2.20 92.86 11.65 none
>25µM Pyrrhocoricin proline-rich Pyrrhocoris apterus […] 10.27 2.34 93.17 11.38 none
>25 µM Metalnikowin-1 proline-rich Palomena prasina […] 9.98 1.84 92.85 13.36 none
>25 µM Metalnikowin-2A proline-rich Palomena prasina […] 9.98 1.84 92.39 10.85 none
>25 µM Metchnikowin-1 proline-rich Drosophila melanogaster […] 10.74 3.03 99.06 11.50 none
>25 µM Metchnikowin-2 proline-rich Drolophila melanogaster […] 11.54 3.04 97.16 11.46 none
12.5 µM Defensin 1 disulfide stabilized Tribolium castaneum […] 9.7 4.83 90.53 18.41 none
~ 25 µM Cecropin-like α-helical Lucilia sericata[…] 10.35 6.66 90.28 12.01 none
0.195 µM Cecropin α-helical Galleria mellonella […] 10.21 4.21 93.61 12.33 n-term. amidation
0.37 µM Cecropin α-helical Lucilia sericata […] 10.56 4.26 94.31 10.83 n-term. amidation
12.5 µM Stomoxyn α-helical Lucilia sericata […] 10.73 4.38 90.37 13.35n-term. amidation n-term.
1.56 µM Cecropin(Sarcotoxin) α-helical Eristalis tenax […] 10.56 4.14 90.80 9.76 none

Bridge positions count the residues as written; N and C are the ends.

Consider “H-VTCDLLSAEAKGVKVNHAACAAHCLLKRKRGGYCNKRRICVCRN-OH (disulfide 3-34, 20-40, 24-42 (inferred)) [Defensin 1]”, for which the “effect on growth of E. coli” value in assay [1] is “minor growth delay”. Further, the “M. catarrhalis CFU count (bacterial burden) in infection assay of primary BDMs” value in assay [2] is “reduced the bacterial burden”. The “MIC (minimal inhibitory concentration)” value in assay [3] (12 h) is 12.5 µM. The “concentration that completely abolished/inhibited the growth of M. catarrhalis” value in assay [3] (growth curve in BHI, two-fold dilution series, 37°C, 16 h, OD600 every 30 min) is on record as 12.5 µM.
